ChEMBL document CHEMBL3525983, “Pharmacokinetics, metabolism, and disposition of rivoglitazone, a novel peroxisome proliferator-activated receptor γ agonist, in rats and monkeys” (Drug Metab Dispos, 2011)

Columns and labels:
[1] = Total clearance in monkey at 0.986 mg/kg, iv administered via tail vein by LC-MS/MS analysis; type: ADME, organism-based, Macaca mulatta; parameters: dose 0.986 mg/kg, dosed compound name [14C]Rivoglitazone, route intravenous; conditions: rhesus monkey, in vivo
[2] = AUC (0 to t) in monkey at 0.986 mg/kg, po administered via gavage by LC-MS/MS analysis; type: ADME, organism-based, Macaca mulatta; parameters: dose 0.986 mg/kg, dosed compound name [14C]Rivoglitazone, route oral; conditions: rhesus monkey, plasma
[3] = Terminal elimination half life in F344/DuCrlCrlj rat at 0.1 mg/kg, po administered via gavage by LC-MS/MS analysis; type: ADME, organism-based; parameters: dose 0.1 mg/kg, dosed compound name [14C]Rivoglitazone, route oral; conditions: in vivo, read-out: beta t1/2 (converted)
[4] = Apparent total clearance in F344/DuCrlCrlj rat at 0.1 mg/kg, po administered via gavage by LC-MS/MS analysis; type: ADME, organism-based; parameters: dose 0.1 mg/kg, dosed compound name [14C]Rivoglitazone, route oral; conditions: in vivo, read-out: CLt/F
[5] = AUC (0 to infinity) in monkey at 0.493 mg/kg, iv administered via tail vein by LC-MS/MS analysis; type: ADME, organism-based, Macaca mulatta; parameters: time infinity, dose 0.493 mg/kg, dosed compound name [14C]Rivoglitazone, route intravenous; conditions: rhesus monkey, plasma
[6] = Volume of distribution at steady state in monkey at 0.493 mg/kg, iv administered via tail vein by LC-MS/MS analysis; type: ADME, organism-based, Macaca mulatta; parameters: dose 0.493 mg/kg, dosed compound name [14C]Rivoglitazone, route intravenous; conditions: rhesus monkey, in vivo, read-out: Vdss
[7] = AUC (0 to t) in F344/DuCrlCrlj rat at 0.1 mg/kg, po administered via gavage by LC-MS/MS analysis; type: ADME, organism-based; parameters: dose 0.1 mg/kg, dosed compound name [14C]Rivoglitazone, route oral; conditions: plasma
[8] = AUC (0 to t) in F344/DuCrlCrlj rat at 0.1 mg/kg, iv administered via tail vein by LC-MS/MS analysis; type: ADME, organism-based; parameters: dose 0.1 mg/kg, dosed compound name [14C]Rivoglitazone, route intravenous; conditions: plasma
[9] = Apparent total clearance in F344/DuCrlCrlj rat at 1 mg/kg, po administered via gavage by LC-MS/MS analysis; type: ADME, organism-based; parameters: dose 1 mg/kg, dosed compound name [14C]Rivoglitazone, route oral; conditions: in vivo, read-out: CLt/F
Plasma [10] = assay: Drug uptake in monkey plasma assessed as unchanged compound at 1 to 5 mg/kg, po administered as single dose via gavage by LC-MS/MS analysis; type: ADME, organism-based, Macaca mulatta; parameters: dose 1-5 mg/kg, dosed compound name [14C]Rivoglitazone, route oral; conditions: rhesus monkey, in vivo
[11] = Terminal elimination half life in monkey at 0.493 mg/kg, iv administered via tail vein by LC-MS/MS analysis; type: ADME, organism-based, Macaca mulatta; parameters: dose 0.493 mg/kg, dosed compound name [14C]Rivoglitazone, route intravenous; conditions: rhesus monkey, in vivo, read-out: beta t1/2 (converted)
[12] = Volume of distribution at steady state in F344/DuCrlCrlj rat at 0.1 mg/kg, iv administered via tail vein by LC-MS/MS analysis; type: ADME, organism-based; parameters: dose 0.1 mg/kg, dosed compound name [14C]Rivoglitazone, route intravenous; conditions: in vivo, read-out: Vdss
[13] = AUC (0 to t) in monkey at 0.493 mg/kg, po administered via gavage by LC-MS/MS analysis; type: ADME, organism-based, Macaca mulatta; parameters: dose 0.493 mg/kg, dosed compound name [14C]Rivoglitazone, route oral; conditions: rhesus monkey, plasma
[14] = Cmax in F344/DuCrlCrlj rat at 1 mg/kg, po administered via gavage by LC-MS/MS analysis; type: ADME, organism-based; parameters: dose 1 mg/kg, dosed compound name [14C]Rivoglitazone, route oral; conditions: in vivo
[15] = Total clearance in monkey at 0.0986 mg/kg, iv administered via tail vein by LC-MS/MS analysis; type: ADME, organism-based, Macaca mulatta; parameters: dose 0.0986 mg/kg, dosed compound name [14C]Rivoglitazone, route intravenous; conditions: rhesus monkey, in vivo
[16] = Drug excretion in bile duct-cannulated rat feces assessed as unchanged compound level administered through intravenous by radio-HPLC analysis; type: ADME; parameters: dosed compound name [14C]Rivoglitazone; conditions: read-out: Compound recovery
[17] = AUC (0 to infinity) in F344/DuCrlCrlj rat at 0.5 mg/kg, iv administered via tail vein by LC-MS/MS analysis; type: ADME, organism-based; parameters: time infinity, dose 0.5 mg/kg, dosed compound name [14C]Rivoglitazone, route intravenous; conditions: plasma
[18] = Tmax in F344/DuCrlCrlj rat at 0.5 mg/kg, po administered via gavage by LC-MS/MS analysis; type: ADME, organism-based; parameters: dose 0.5 mg/kg, dosed compound name [14C]Rivoglitazone, route oral; conditions: in vivo
[19] = Oral bioavailability in monkey at 0.493 mg/kg administered via gavage by LC-MS/MS analysis; type: ADME, organism-based, Macaca mulatta; parameters: dosed compound name [14C]Rivoglitazone; conditions: rhesus monkey, in vivo
[20] = Cmax in monkey at 0.0986 mg/kg, po administered via gavage by LC-MS/MS analysis; type: ADME, organism-based, Macaca mulatta; parameters: dose 0.0986 mg/kg, dosed compound name [14C]Rivoglitazone, route oral; conditions: rhesus monkey, in vivo
[21] = AUC (0 to infinity) in F344/DuCrlCrlj rat at 0.1 mg/kg, iv administered via tail vein by LC-MS/MS analysis; type: ADME, organism-based; parameters: time infinity, dose 0.1 mg/kg, dosed compound name [14C]Rivoglitazone, route intravenous; conditions: plasma
[22] = Total clearance in monkey at 0.493 mg/kg, iv administered via tail vein by LC-MS/MS analysis; type: ADME, organism-based, Macaca mulatta; parameters: dose 0.493 mg/kg, dosed compound name [14C]Rivoglitazone, route intravenous; conditions: rhesus monkey, in vivo
[23] = Drug excretion in F344/DuCrlCrlj rat feces assessed as unchanged compound at 1 mg/kg, po administered via gavage measured during 0 to 48 hrs by radio-HPLC analysis; type: ADME, organism-based; parameters: dose 1 mg/kg, dosed compound name [14C]Rivoglitazone, route oral; conditions: read-out: Compound recovery
[24] = Tmax in monkey at 0.0986 mg/kg, po administered via gavage by LC-MS/MS analysis; type: ADME, organism-based, Macaca mulatta; parameters: dose 0.0986 mg/kg, dosed compound name [14C]Rivoglitazone, route oral; conditions: rhesus monkey, in vivo
[25] = Drug excretion in monkey urine assessed as unchanged compound at 1 mg/kg, po administered via gavage measured during 0 to 72 hrs by radio-HPLC analysis; type: ADME, organism-based, Macaca mulatta; parameters: dose 1 mg/kg, dosed compound name [14C]Rivoglitazone, route oral; conditions: rhesus monkey, read-out: Compound recovery
[26] = Oral bioavailability in F344/DuCrlCrlj rat at 0.1 mg/kg administered via gavage by LC-MS/MS analysis; type: ADME, organism-based; parameters: dosed compound name [14C]Rivoglitazone; conditions: in vivo
[27] = Tmax in F344/DuCrlCrlj rat at 0.1 mg/kg, po administered via gavage by LC-MS/MS analysis; type: ADME, organism-based; parameters: dose 0.1 mg/kg, dosed compound name [14C]Rivoglitazone, route oral; conditions: in vivo
[28] = Drug excretion in monkey urine/feces assessed as unchanged compound at 1 mg/kg, po administered via gavage measured during 0 to 72 hrs by radio-HPLC analysis; type: ADME, organism-based, Macaca mulatta; parameters: dose 1 mg/kg, dosed compound name [14C]Rivoglitazone, route oral; conditions: rhesus monkey, urine and feces, read-out: Compound recovery
[29] = Total clearance in F344/DuCrlCrlj rat at 0.1 mg/kg, iv administered via tail vein by LC-MS/MS analysis; type: ADME, organism-based; parameters: dose 0.1 mg/kg, dosed compound name [14C]Rivoglitazone, route intravenous; conditions: in vivo
[30] = AUC (0 to infinity) in monkey at 0.986 mg/kg, po administered via gavage by LC-MS/MS analysis; type: ADME, organism-based, Macaca mulatta; parameters: time infinity, dose 0.986 mg/kg, dosed compound name [14C]Rivoglitazone, route oral; conditions: rhesus monkey, plasma
[31] = Apparent total clearance in F344/DuCrlCrlj rat at 0.5 mg/kg, po administered via gavage by LC-MS/MS analysis; type: ADME, organism-based; parameters: dose 0.5 mg/kg, dosed compound name [14C]Rivoglitazone, route oral; conditions: in vivo, read-out: CLt/F
[32] = Terminal elimination half life in F344/DuCrlCrlj rat at 0.5 mg/kg, iv administered via tail vein by LC-MS/MS analysis; type: ADME, organism-based; parameters: dose 0.5 mg/kg, dosed compound name [14C]Rivoglitazone, route intravenous; conditions: in vivo, read-out: beta t1/2 (converted)
[33] = AUC (0 to t) in monkey at 0.0986 mg/kg, iv administered via tail vein by LC-MS/MS analysis; type: ADME, organism-based, Macaca mulatta; parameters: dose 0.0986 mg/kg, dosed compound name [14C]Rivoglitazone, route intravenous; conditions: rhesus monkey, plasma
[34] = Terminal elimination half life in monkey at 0.986 mg/kg, iv administered via tail vein by LC-MS/MS analysis; type: ADME, organism-based, Macaca mulatta; parameters: dose 0.986 mg/kg, dosed compound name [14C]Rivoglitazone, route intravenous; conditions: rhesus monkey, in vivo, read-out: beta t1/2 (converted)
[35] = Terminal elimination half life in monkey at 0.986 mg/kg, po administered via gavage by LC-MS/MS analysis; type: ADME, organism-based, Macaca mulatta; parameters: dose 0.986 mg/kg, dosed compound name [14C]Rivoglitazone, route oral; conditions: rhesus monkey, in vivo, read-out: beta t1/2 (converted)
[36] = Volume of distribution at steady state in monkey at 0.986 mg/kg, iv administered via tail vein by LC-MS/MS analysis; type: ADME, organism-based, Macaca mulatta; parameters: dose 0.986 mg/kg, dosed compound name [14C]Rivoglitazone, route intravenous; conditions: rhesus monkey, in vivo, read-out: Vdss
[37] = AUC (0 to t) in monkey at 0.0986 mg/kg, po administered via gavage by LC-MS/MS analysis; type: ADME, organism-based, Macaca mulatta; parameters: dose 0.0986 mg/kg, dosed compound name [14C]Rivoglitazone, route oral; conditions: rhesus monkey, plasma
Plasma [38] = assay: Drug metabolism in F344/DuCrlCrlj rat plasma assessed as 2-((4-((2,4-dioxothiazolidin-5-yl)methyl)phenoxy)methyl)-1-methyl-1H-benzo[d]imidazol-6-yl hydrogen sulfate formation at 1 to 5 mg/kg, po administered as single dose via gavage by LC-MS/MS analysis; type: ADME, organism-based; parameters: dose 1-5 mg/kg, dosed compound name [14C]Rivoglitazone, route oral; conditions: in vivo
[39] = Cmax in F344/DuCrlCrlj rat at 0.5 mg/kg, po administered via gavage by LC-MS/MS analysis; type: ADME, organism-based; parameters: dose 0.5 mg/kg, dosed compound name [14C]Rivoglitazone, route oral; conditions: in vivo
[40] = Apparent total clearance in monkey at 0.0986 mg/kg, po administered via gavage by LC-MS/MS analysis; type: ADME, organism-based, Macaca mulatta; parameters: dose 0.0986 mg/kg, dosed compound name [14C]Rivoglitazone, route oral; conditions: rhesus monkey, in vivo, read-out: CLt/F
[41] = Cmax in monkey at 0.986 mg/kg, po administered via gavage by LC-MS/MS analysis; type: ADME, organism-based, Macaca mulatta; parameters: dose 0.986 mg/kg, dosed compound name [14C]Rivoglitazone, route oral; conditions: rhesus monkey, in vivo
[42] = Total clearance in F344/DuCrlCrlj rat at 0.5 mg/kg, iv administered via tail vein by LC-MS/MS analysis; type: ADME, organism-based; parameters: dose 0.5 mg/kg, dosed compound name [14C]Rivoglitazone, route intravenous; conditions: in vivo

clearance [1]: 0.31 mL/min/kg | AUC(0-t) [2]: 35800 ng·h/mL | half-life [3]: 261 min | CL/F [4]: 0.354 mL/min/kg | AUC(0-inf) [5]: 23500 ng·h/mL | Vd [6]: 0.155 L/kg | AUC(0-t) [7]: 4340 ng·h/mL | AUC(0-t) [8]: 4530 ng·h/mL | CL/F [9]: 0.304 mL/min/kg | Compound recovery (Plasma [10]): metabolite_detected | half-life [11]: 373 min | Vd [12]: 0.125 L/kg | AUC(0-t) [13]: 17200 ng·h/mL | Cmax [14]: 4570 ng/mL | clearance [15]: 0.312 mL/min/kg | dose excreted [16]: 2.3% | AUC(0-inf) [17]: 22900 ng·h/mL | Tmax [18]: 1.13 h | bioavailability [19]: 90.4% | Cmax [20]: 242 ng/mL | AUC(0-inf) [21]: 4670 ng·h/mL | clearance [22]: 0.371 mL/min/kg | dose excreted [23]: 23.7% | Tmax [24]: 3 h | dose excreted [25]: 0.3% | bioavailability [26]: 98.1% | Tmax [27]: 3.25 h | dose excreted [28]: 23.8% | clearance [29]: 0.329 mL/min/kg | AUC(0-inf) [30]: 43100 ng·h/mL | CL/F [31]: 0.352 mL/min/kg | half-life [32]: 290 min | AUC(0-t) [33]: 3800 ng·h/mL | half-life [34]: 407 min | half-life [35]: 440 min | Vd [36]: 0.138 L/kg | AUC(0-t) [37]: 3440 ng·h/mL | Compound recovery (Plasma [38]): metabolite_detected | Cmax [39]: 2090 ng/mL | CL/F [40]: 0.432 mL/min/kg | Cmax [41]: 2930 ng/mL | clearance [42]: 0.333 mL/min/kg
Compound: COc1ccc2nc(COc3ccc(CC4SC(=O)NC4=O)cc3)n(C)c2c1.Cl (racemic)
